Results reported in patent US9403798B2, “Triazinone compound and T-type calcium channel inhibitor” (NISSAN CHEMICAL INDUSTRIES, LTD., priority 2012, dated 2016).

Target: T1, Human T-type calcium channel (Cav 3.2) (Homo sapiens, UniProt O95180)
T1 construct: Edward Perez-Reyes, University of Virginia, USA; host or cells: HEK293
Assay: Calcium Influx Inhibition Assay
Type: cell-based
Settings: Human T-type calcium channel (Cav 3.2) expressing HEK293 cells, FLIPR Calcium 4 fluorescence
Description: 1. Calcium Influx Inhibition Assay
Human T-type calcium channel (Cav 3.2) expressing HEK293 cells were obtained from Prof. Edward Perez-Reyes, University of Virginia, USA. The calcium-sensitive fluorescent dye used was FLIPR Calcium 4 Assay Kit (Molecular Devices). To a black 96-well plate with a clear bottom coated with type I collagen, the human T-type calcium channel (Cav 3.2) expressing HEK293 cells were seeded and cultured overnight, and the culture medium was removed. A solution of the calcium-sensitive fluorescent dye was added, and the plate was incubated at 37° C. in an atmosphere of 5% carbon dioxide for 30 minutes. To the plate, a diluted solution of a compound was added, and the whole was further incubated at 37° C. in an atmosphere of 5% carbon dioxide for 30 minutes. While fluorescence was continuously analyzed from the bottom with a FlexStation 3 (Molecular Devices), a calcium solution was added. […] From the rise in the fluorescence from the base line, the inhibition percentage was calculated. The logarithms of compound concentrations were plotted with respect to the inhibition activities to give an IC50 value.

T1 sequence (O95180 whole entry): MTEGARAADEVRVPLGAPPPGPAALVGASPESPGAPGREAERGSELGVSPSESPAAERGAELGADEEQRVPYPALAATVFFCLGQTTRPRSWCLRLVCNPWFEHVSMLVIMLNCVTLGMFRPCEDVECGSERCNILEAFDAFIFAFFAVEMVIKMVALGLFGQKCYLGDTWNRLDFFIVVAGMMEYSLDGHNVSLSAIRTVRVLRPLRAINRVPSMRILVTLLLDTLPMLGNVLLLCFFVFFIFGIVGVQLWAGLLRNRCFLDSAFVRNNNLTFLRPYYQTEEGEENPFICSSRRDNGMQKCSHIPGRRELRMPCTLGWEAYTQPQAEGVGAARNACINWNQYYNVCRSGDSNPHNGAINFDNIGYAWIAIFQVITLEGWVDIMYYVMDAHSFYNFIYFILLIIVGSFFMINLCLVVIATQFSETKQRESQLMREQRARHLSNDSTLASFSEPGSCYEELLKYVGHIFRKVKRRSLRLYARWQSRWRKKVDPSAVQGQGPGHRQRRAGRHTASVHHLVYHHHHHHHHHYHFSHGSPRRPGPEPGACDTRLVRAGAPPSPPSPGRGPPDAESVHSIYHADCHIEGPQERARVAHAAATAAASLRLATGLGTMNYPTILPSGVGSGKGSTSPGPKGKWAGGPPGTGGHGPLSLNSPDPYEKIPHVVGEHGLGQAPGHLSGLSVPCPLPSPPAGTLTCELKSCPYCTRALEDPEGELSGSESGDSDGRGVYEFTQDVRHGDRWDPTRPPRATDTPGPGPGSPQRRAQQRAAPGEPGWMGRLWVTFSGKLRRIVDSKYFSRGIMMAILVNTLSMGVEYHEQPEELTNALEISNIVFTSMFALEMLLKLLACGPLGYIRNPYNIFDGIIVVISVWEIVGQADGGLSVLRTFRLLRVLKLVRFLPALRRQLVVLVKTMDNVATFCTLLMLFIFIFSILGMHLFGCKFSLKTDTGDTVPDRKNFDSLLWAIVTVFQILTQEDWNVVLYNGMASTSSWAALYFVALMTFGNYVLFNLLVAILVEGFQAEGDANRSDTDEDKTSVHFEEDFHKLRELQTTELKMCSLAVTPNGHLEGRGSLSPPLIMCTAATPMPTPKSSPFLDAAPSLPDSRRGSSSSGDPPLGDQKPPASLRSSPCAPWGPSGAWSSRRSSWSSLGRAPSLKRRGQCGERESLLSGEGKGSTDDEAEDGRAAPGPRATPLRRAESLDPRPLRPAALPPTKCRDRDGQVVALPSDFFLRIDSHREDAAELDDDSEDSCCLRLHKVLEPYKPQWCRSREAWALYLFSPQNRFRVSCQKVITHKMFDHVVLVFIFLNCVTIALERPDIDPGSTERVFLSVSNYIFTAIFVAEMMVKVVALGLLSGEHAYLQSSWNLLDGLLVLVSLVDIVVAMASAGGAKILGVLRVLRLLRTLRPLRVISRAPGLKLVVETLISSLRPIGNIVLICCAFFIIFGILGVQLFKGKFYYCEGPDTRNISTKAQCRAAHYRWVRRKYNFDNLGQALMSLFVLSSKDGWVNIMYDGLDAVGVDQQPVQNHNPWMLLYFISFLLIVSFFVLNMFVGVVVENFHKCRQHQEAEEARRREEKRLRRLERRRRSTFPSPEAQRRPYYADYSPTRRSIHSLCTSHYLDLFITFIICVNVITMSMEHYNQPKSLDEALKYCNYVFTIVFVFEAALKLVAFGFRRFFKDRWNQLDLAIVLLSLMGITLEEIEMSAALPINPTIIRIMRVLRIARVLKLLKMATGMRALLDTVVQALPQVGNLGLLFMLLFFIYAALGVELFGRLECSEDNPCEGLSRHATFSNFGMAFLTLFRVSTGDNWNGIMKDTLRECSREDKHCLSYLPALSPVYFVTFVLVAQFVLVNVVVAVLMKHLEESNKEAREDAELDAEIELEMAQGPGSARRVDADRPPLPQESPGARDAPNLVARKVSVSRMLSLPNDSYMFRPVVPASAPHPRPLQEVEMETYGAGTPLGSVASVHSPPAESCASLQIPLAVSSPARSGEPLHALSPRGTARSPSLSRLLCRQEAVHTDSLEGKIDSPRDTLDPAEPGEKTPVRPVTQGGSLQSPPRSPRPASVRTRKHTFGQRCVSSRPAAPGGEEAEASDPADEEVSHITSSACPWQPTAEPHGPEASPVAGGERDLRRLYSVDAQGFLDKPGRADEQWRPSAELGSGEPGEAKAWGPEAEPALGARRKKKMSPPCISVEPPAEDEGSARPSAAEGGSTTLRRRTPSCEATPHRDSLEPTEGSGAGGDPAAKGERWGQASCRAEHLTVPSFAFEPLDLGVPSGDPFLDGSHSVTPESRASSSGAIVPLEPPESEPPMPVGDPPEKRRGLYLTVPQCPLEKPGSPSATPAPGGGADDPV

| IC50 [nM] | Compound |
| --- | --- |
| 440 | O=c1nc(N2CCN(c3ccc(SC(F)(F)F)cc3)CC2)ncn1Cn1ccc(C(F)(F)F)n1 [compound 43] |
| 88 | COc1nc(N2CCN(c3ccc(F)cc3)CC2)nc(=O)n1Cc1ccc(OCc2ccc(Cl)cc2)cc1 [compound 66] |
| 3.7 | Cc1cc(C2=CCN(c3nc(C)n(Cc4cnc(C(F)(F)F)s4)c(=O)n3)C[C@@H]2O)cs1 [compound 493] |
| 42 | O=c1nc(N2CC=C(c3ccc(Cl)cn3)CC2)ncn1Cc1ccc(C(F)(F)F)s1 [compound 256] |
| 75 | O=c1nc(N2CCN(c3ccc(Cl)cc3)CC2)ncn1Cn1ccc(C(F)(F)F)n1 [compound 38] |
| 5.5 | Cc1nc(N2CC=C(c3ccc(F)cc3)[C@@H](O)C2)nc(=O)n1Cc1cnc(C(F)(F)F)s1 [compound 219] |
| 41 | CC(C)(C)c1ccc(Cn2cnc(N3CC=C(c4ccc(F)cc4)CC3)nc2=O)cc1 [compound 183] |
| 83 | Cc1nc(N[C@H]2C[C@@H](c3ccc(F)cc3)C2)nc(=O)n1Cc1ccc(C(F)(F)F)s1 [compound 360] |
| 9.9 | O=c1nc(N2CC=C(c3ccc(F)cc3)C(O)C2)ncn1Cn1ccc(C(F)(F)C(F)(F)F)n1 (centres unmarked) [compound 194] |
| 4 | Cc1csc(C2=CCN(c3ncn(Cc4ccc(C(F)(F)F)s4)c(=O)n3)C[C@@H]2O)c1 [compound 327] |
| 2.3 | O=c1nc(N2CC=C(c3ccc(F)cc3)[C@H](O)C2)ncn1Cc1ccc(C(F)(F)F)s1 [compound 316] |
| 550 | CC(C)(C)OC(=O)N1C[C@@H](CNc2ncn(Cc3ccc(C(F)(F)F)s3)c(=O)n2)[C@H](c2ccc(F)cc2)C1 [compound 312] |
| 1.8 | Cc1cc(C2=CCN(c3ncn(Cc4ccc(C(F)(F)F)s4)c(=O)n3)C[C@@H]2O)cs1 [compound 333] |
| 24 | O=c1nc(N2CC=C(c3ccc(Cl)cc3)CC2)ncn1Cc1ccc(C(F)(F)F)s1 [compound 71] |
| 580 | O=c1cc(C(F)(F)F)ccn1Cn1cnc(N2CCN(c3ccc(F)cc3)CC2)nc1=O [compound 16] |
| 43 | O=c1nc(N2CC=C(c3ccc(F)cc3)CC2)ncn1Cc1ccc2oc(C(F)(F)F)cc2c1 [compound 184] |
| 610 | CN(C)Cc1nc(N2CCN(c3ccc(F)cc3)CC2)nc(=O)n1Cc1ccc(C(F)(F)F)s1 [compound 462] |
| 630 | Cc1nc(N2CCC3(CCN(c4ccc(F)cc4)C3)CC2)nc(=O)n1Cc1ccc(C(F)(F)F)s1 [compound 370] |
| 170 | O=c1nc(N2CCN(c3ccc(F)cc3)CC2)ncn1Cc1ccc(Cl)cc1 [compound 1] |
| 46 | CS(=O)(=O)NC1CN(c2ncn(Cc3ccc(C(F)(F)F)s3)c(=O)n2)CC=C1c1ccc(F)cc1 (centres unmarked) [compound 314] |
| 200 | O=c1nc(Nc2ccn(-c3ccc(F)cc3)c2)ncn1Cc1ccc(Cl)cc1 [compound 131] |
| 56 | O=c1nc(N2CC=C(c3cc(F)cc(F)c3)CC2)ncn1Cc1ccc(C(F)(F)F)s1 [compound 285] |
| 57 | O=c1nc(N[C@@H]2CCN(c3ccc(F)cc3)C2)ncn1Cc1ccc(C(F)(F)F)s1 [compound 224] |
| 280 | O=c1nc(NC2CCC(O)(c3ccc(F)cc3)C2O)ncn1Cc1ccc(Cl)cc1 (centres unmarked) [compound 465] |

| IC50 [nM] | Compound |
| --- | --- |
| 75 | O=C1CCc2cc(C3=CCN(c4ncn(Cc5ccc(C(F)(F)F)s5)c(=O)n4)CC3)ccc21 [compound 269] |
| 500 | Cc1nc(N2CCN(CC(=O)C34CC5CC(CC(C5)C3)C4)CC2)nc(=O)n1Cc1ccc(C(F)(F)F)s1 [compound 487] |
| 19 | O=c1nc(N2CC=C(c3ccccc3)CC2)ncn1Cc1ccc(C(F)(F)F)s1 [compound 70] |
| 56 | CC(C)(C)c1ccc(Cn2cnc(N3CCN(c4ccc(F)cc4)CC3)nc2=O)cc1 [compound 5] |
| 800 | Cc1ccccc1N1CCN(c2ncn(Cn3ccc(C(F)(F)F)n3)c(=O)n2)CC1 [compound 59] |
| 400 | Cc1nc(N2CCN(c3ccc(F)cc3)CC2)nc(=O)n1CC12CC3CC(CC(C3)C1)C2 [compound 461] |
| 150 | O=c1nc(N2CCN(c3ccc(F)cc3)CC2)ncn1Cn1ccc(C2CCCCC2)n1 [compound 27] |
| 68 | O=c1nc(N2CC=C(c3ccc(F)cc3)CC2)ncn1Cc1ccc(OCC(F)(F)F)cc1 [compound 468] |
| 24 | Cc1nc(N2CC=C(c3ccc(F)cc3)[C@@H](O)C2)nc(=O)n1C(C)c1ccc(C(F)(F)F)s1 (some centres unmarked) [compound 453] |
| 30 | Cc1cc(C2=CCN(c3ncn(Cc4ccc(C(F)(F)F)s4)c(=O)n3)CC2)sn1 [compound 275] |
| 47 | O=c1nc(N[C@@H]2CCN(c3ccc(F)cc3)C2)ncn1Cc1ccc(Cl)cc1 [compound 92] |
| 350 | COc1cncc(C2=CCN(c3ncn(Cc4ccc(C(F)(F)F)s4)c(=O)n3)CC2)n1 [compound 272] |
| 19 | O=c1nc(N2CCN(c3ccc(F)cc3)CC2)ncn1Cc1ccc(OC(F)(F)F)cc1 [compound 6] |
| 4.4 | O=c1nc(N2CC=C(c3ccc(F)c(Cl)c3)[C@@H](O)C2)ncn1Cc1ccc(Cl)s1 [compound 400] |
| 13 | Cc1nc(N2CCN(c3nc(C)n(Cc4ccc(C(F)(F)F)s4)c(=O)n3)CC2)ccc1F [compound 365] |
| 5.5 | O=c1nc(N2CC=C(c3ccc(F)c(Cl)c3)[C@@H](O)C2)ncn1Cc1cc2c(s1)CCCC2 [compound 428] |
| 16 | Cc1nc(C2=CCN(c3ncn(Cc4ccc(C(C)(C)C)s4)c(=O)n3)C[C@@H]2O)ccc1F [compound 415] |
| 12 | Cc1nc(N2CCN(c3ccc(F)cc3)CC2)nc(=O)n1Cc1ccc(C(F)(F)F)s1 [compound 344] |
| 28 | O=c1nc(N2CC=C(c3ccc(F)c(F)c3)CC2)ncn1Cc1ccc(C(F)(F)F)s1 [compound 264] |
| 570 | O=c1nc(N2CCC(c3ccc(F)cc3)C(F)(F)C2)ncn1Cc1ccc(Cl)cc1 (centres unmarked) [466b] |
| 1.7 | COc1nc(C2=CCN(c3nc(C)n(Cc4ccc(Br)s4)c(=O)n3)C[C@@H]2O)ccc1Cl [compound 395] |
| 1.9 | Cc1nc(N2CC=C(c3ccc(F)cc3)[C@@H](O)C2)nc(=O)n1Cc1ccc(C(F)(F)C(F)(F)F)s1 [compound 454] |
| 520 | O=c1nc(N[C@@H]2CO[C@H](c3ccc(F)cc3)C2)ncn1Cc1ccc(C(F)(F)F)s1 (racemic) [compound 309] |
| 470 | CN(C)C1CN(c2ncn(Cc3ccc(C(F)(F)F)s3)c(=O)n2)CC=C1c1ccc(F)cc1 (centres unmarked) [compound 481] |

| IC50 [nM] | Compound |
| --- | --- |
| 510 | Cc1nc(N2CCC(n3cc(Br)cn3)CC2)nc(=O)n1Cc1ccc(C(F)(F)F)s1 [compound 489] |
| 0.46 | O=c1nc(N2CC=C(c3ccc(F)cc3)[C@@H](O)C2)ncn1Cc1ccc(C(F)(F)F)s1 [compound 315] |
| 860 | Cc1nc(N2CCN(C34CC5CC(CC(C5)C3)C4)CC2)nc(=O)n1Cc1ccc(C(F)(F)F)s1 [compound 382] |
| 39 | COC1CN(c2ncn(Cc3ccc(C(F)(F)F)s3)c(=O)n2)CC=C1c1ccc(F)cc1 (centres unmarked) [compound 475] |
| 57 | O=c1nc(NC2CCC(c3ccc(F)cc3)C2)ncn1Cc1ccc(Cl)cc1 (centres unmarked) [compound 85] |
| 510 | O=c1nc(N2CC=C(c3cn4c(n3)CCC4)CC2)ncn1Cc1ccc(C(F)(F)F)s1 [compound 283] |
| 100 | O=c1nc(N2CCN(c3ccc(F)cc3)CC2)ncn1Cc1ccc(C(F)(F)F)cc1 [compound 3] |
| 3.6 | O=c1nc(N2CC=C(c3ccc(F)cc3)C(O)C2)ncn1Cc1ccc2c(c1)CC(C(F)(F)F)O2 (centres unmarked) [compound 195] |
| 410 | Cc1nc(N2CCC(c3ccc(F)cc3)C(CO)(CO)C2)nc(=O)n1Cc1ccc(C(F)(F)F)s1 (centres unmarked) [compound 485] |
| 1.1 | Cc1nc(N2CC=C(c3ccc(F)c(Cl)c3)[C@@H](O)C2)nc(=O)n1Cc1ccc(C(F)(F)F)s1 [compound 350] |
| 160 | Cc1cccc(C2=CCN(c3ncn(Cc4cc5c(s4)CCCC5)c(=O)n3)C[C@@H]2O)n1 [compound 430] |
| 320 | O=c1nc(N2CCN(c3ccc(F)cc3)CC2)ncn1Cc1csc(C(F)(F)F)n1 [compound 29] |
| 600 | O=c1nc(N2CC=C(c3cnn(CC(F)(F)F)c3)CC2)ncn1Cc1ccc(C(F)(F)F)s1 [compound 259] |
| 170 | O=c1nc(N2CCN(c3cc(F)c(F)c(F)c3)CC2)ncn1Cn1ccc(C(F)(F)F)n1 [compound 58] |
| 1.5 | Cc1csc(C2=CCN(c3nc(C)n(Cc4ccc(C(F)(F)F)s4)c(=O)n3)C[C@@H]2O)c1 [compound 362] |
| 3.6 | NC1CN(c2ncn(Cc3ccc(C(F)(F)F)s3)c(=O)n2)CC=C1c1ccc(F)cc1 (centres unmarked) [compound 321] |
| 13 | Cc1nc(N2CC=C(c3ccc(F)cc3)CC2)nc(=O)n1Cc1ccc(C(F)(F)F)s1 [compound 340] |
| 20 | O=c1nc(N2CC=C(c3ccc(F)cc3)C(O)C2)ncn1Cc1ccc(C2CCCO2)s1 (centres unmarked) [compound 196] |
| 13 | CC(=O)OCc1nc(N2CC=C(c3ccc(F)cc3)[C@@H](O)C2)nc(=O)n1Cc1ccc(C(F)(F)F)s1 [compound 457] |
| 40 | Cc1cc(F)ccc1C1=CCN(c2nc(C)n(Cc3ccc(C(C)(C)C)s3)c(=O)n2)C[C@@H]1O [compound 423] |
| 66 | O=c1nc(N2CC=C(c3ccc(F)cc3)CC2)ncn1Cc1ccc(C2CC2)s1 [compound 479] |
| 22 | O=c1nc(N2CC=C(c3ccsc3)CC2)ncn1Cc1ccc(C(F)(F)F)s1 [compound 230] |
| 230 | COc1nc(N2CCN(c3ccc(F)cc3)CC2)nc(=O)n1Cc1ccc(Cl)cc1 [compound 31] |
